Target: T1, p60^c-src (Homo sapiens, UniProt P12931)
T1 construct: purchased Upstate Biotechnologies
Experiment: Src kinase assay (ELISA format)
Type: biochemical
Procedure: Inhibitors of p60^c-src (partially purified preparation purchased from Upstate Biotechnologies) tyrosine kinase activity are analyzed in an ELISA format. The Boehringer Mannheim Tyrosine Kinase Assay Kit (Catalog number 1-534505) with a cdc2 substrate peptide containing Tyr15 is used for the assay. HRP-conjugated anti-phosphotyrosine is used to detect phosphorylated peptide via a color reaction. Conditions recommended by the manufacturer are employed.
Reaction conditions: Five microliter aliquots of each compound prepared fresh at the time of the assay are added as a solution in 10mM HEPES pH 7.5, 10% DMSO to the reaction well. Thirty-five microliters of reaction mix containing Src, buffer and peptide/bovine serum albumin mix are added to the compound wells and incubated at 30°C for 10 minutes (reaction buffer: 50mM TrisHCl pH 7.5, 10mM MgCl2, 0.1mM EGTA, 0.5mM Na3VO4). The reaction is started by addition of 10 microliters of ATP, incubated at 30°C for 1 hour, and stopped by addition of 20 microliters of 0.5M EDTA. The reaction mixture with the phosphorylated peptide was then transferred to a streptavidin-coated microtiter plate (provided in the kit) and allowed to bind for 20 minutes. […] Substrate (provided in the kit) was added and absorbance at 405nm was measured.
Activity was determined as % inhibition as calculated by the formula: (1 - Abs/Abs(max)) x 100 = % inhibition. […]

T1 sequence (P12931 whole entry): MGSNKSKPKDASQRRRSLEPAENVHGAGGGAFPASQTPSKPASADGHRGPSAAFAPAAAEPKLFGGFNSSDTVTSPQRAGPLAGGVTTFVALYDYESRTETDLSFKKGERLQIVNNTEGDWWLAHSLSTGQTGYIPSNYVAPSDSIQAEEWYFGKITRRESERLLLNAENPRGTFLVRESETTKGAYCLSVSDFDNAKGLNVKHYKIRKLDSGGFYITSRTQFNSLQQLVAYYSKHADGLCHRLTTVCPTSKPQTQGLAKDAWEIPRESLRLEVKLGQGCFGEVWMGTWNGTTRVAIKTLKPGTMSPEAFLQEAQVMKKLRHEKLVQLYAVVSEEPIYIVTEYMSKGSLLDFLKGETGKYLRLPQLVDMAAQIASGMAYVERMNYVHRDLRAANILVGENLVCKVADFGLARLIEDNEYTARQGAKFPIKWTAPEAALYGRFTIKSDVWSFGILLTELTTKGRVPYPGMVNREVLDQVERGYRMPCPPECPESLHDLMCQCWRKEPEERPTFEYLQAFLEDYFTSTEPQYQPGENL

- IC50: 1010 nM
Structure (SMILES): CCN1CCN(CCCCN2CCOc3cc4c(Nc5ccc(Cl)cc5Cl)c(C#N)cnc4cc32)CC1 [Example 24, 9-(2,4-Dichloroanilino)-4-[4-(4-ethyl-1-piperazinyl)butyl]-3,4-dihydro-2H-[1,4]oxazino[2,3-g]quinoline-8-carbonitrile]

From patent publication EP1268487B1, “TRICYCLIC PROTEIN KINASE INHIBITORS” (Wyeth, priority 2000, dated 2001)
